Results published in US20150368242A1, “NOVEL TETRAHYDROPYRIDOPYRIMIDINONE DERIVATIVE” (Ajinomoto Co., Inc., priority 2013, published 2015).
Where “and” joins values, the source holds several entries; their conditions need not be identical. Identical values can stand only once. Counter-ions that a name gives are not always drawn. Like-named read-outs stand apart in the source and are kept apart here. Each block holds one compound with its values, some of them ahead of it.

Key:
[1] = target: T1, recombinant human MGAT2 enzyme (Homo sapiens, UniProt Q3SYC2); assay: Test for human MGAT2 activity inhibitory action (14C-oleoyl CoA, recombinant enzyme microsomes); type: biochemical; set-up: key to Potency relative to Comparative Example 1 (higher = more potent): % inhibition = {1−(C−B)/(A−B)}×100, B = 10 μM Comparative Example 1
T1 construct: made in house; host or cells: CHO-K1 (Jump-In CHO-K1 Kit, Life Technologies); microsomal fraction used as the enzyme solution
T1 sequence (Q3SYC2 whole entry): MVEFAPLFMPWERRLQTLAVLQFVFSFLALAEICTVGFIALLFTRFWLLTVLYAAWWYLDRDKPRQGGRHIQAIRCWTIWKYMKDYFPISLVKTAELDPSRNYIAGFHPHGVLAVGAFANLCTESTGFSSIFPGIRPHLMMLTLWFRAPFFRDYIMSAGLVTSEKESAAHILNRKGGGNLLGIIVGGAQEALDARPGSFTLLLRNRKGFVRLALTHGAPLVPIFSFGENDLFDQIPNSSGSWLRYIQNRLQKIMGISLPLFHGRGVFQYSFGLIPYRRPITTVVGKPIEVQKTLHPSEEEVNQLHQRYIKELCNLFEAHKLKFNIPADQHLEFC
Summary of the method: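 Microsomes from CHO-K1 cells expressing human MGAT2 (0.67 μg/mL) reacted 30 min at 37 °C with 50 μM 2-monooleoyl glycerol, 50 μM oleoyl CoA, 2.2 μM 1-14C-oleoyl CoA and 8.3 μM orlistat in 50 mM Tris pH 7.4, 6 mM MgCl2, 2 mg/mL BSA, 0.3% DMSO. Heptane-extracted 14C counted; inhibition normalized between no-compound and 10 μM reference-compound controls.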

[2] = tested on: orally lipid-loaded mouse model (C57BL/6J mice); assay: Test for lipid absorption inhibitory action (orally lipid-loaded mouse model); type: in vivo; settings: for Lipid absorption inhibition ratio (%): plasma neutral fat AUC up to 6 hours after corn oil; for lipid absorption inhibitory action (in words): 30 mg/kg, Comparative Example 1 at 100 mg/kg
Protocol: The lipid absorption inhibitory action of the compounds of Examples 5 and 60 and the compound of Comparative Example 1 was examined in an orally lipid-loaded mouse model. In this test, 10 to 11-week old male C57BL/6J mice (CLEA Japan, Inc.) were used. After the mice were fasted for 17 hours from the preceding day, blood was collected from the fundus, and further the mice were subjected to forced oral administration of one of the compounds or the medium (0.5% methyl cellulose). Thirty minutes after the administration, tyloxapol (500 mg/kg) was administered into the tail vein, and corn oil (200 μl) was orally administered (n=5-6). Blood was collected via the tail vein 2, 4, and 6 hours after the administration of corn oil, and plasma was obtained by centrifuging the blood. The neutral fat concentration in the plasma was measured by using Triglyceride E-Test Wako (Wako Pure Chemical Industries, Ltd.). The neutral fat concentration in the plasma before the administration of the compound was taken as the value at 0 hours, and the area under the curve (AUC) of the neutral fat concentration in the plasma up to 6 hours after the administration of corn oil was calculated. From the average value of the AUC of each administration group, the lipid absorption inhibition ratio was obtained by using the following formula.
Lipid absorption inhibition ratio (%)=(Average value of AUC of medium administration group-Average value of AUC of compound administration group)/Average value of AUC of medium administration group×100

[3] = tested on: C57BL/6J mice fed on high-fat diet (diet-induced obesity mouse model); assay: Test for anti-obesity action in high-fat diet fed mice; type: in vivo; settings: for Body Fat Weight, average value (difference from medium administration group) / Fat-Free Weight, average value (difference from medium administration group): Day 21, quantitative NMR; for Percent Body Weight Change, average value (difference from medium administration group): forced oral once per day Day 1 to Day 22, Day 23, n=8
Description: The anti-obesity action of the compound of Example 5 was examined in C57BL/6J mice fed on high-fat diet (Research Diets D12492). Thirteen-week old male C57BL/6J-DIO mice (CHARLES RIVER LABORATORIES JAPAN, INC.) were purchased, and fed in animal facilities under a 12-hour light/dark cycle for 13 weeks on the diet of D12492. From six days before the administration of the compound, the animals were habituated by inserting a tube for forced oral administration into the stomach once per day. One day before the administration of the compound, the mice were randomized on the basis of the body weight, and divided into groups (n=8). From Day 1 to Day 22, forced oral administration of the compound or a medium (0.5% methyl cellulose) was conducted once per day. The body weight was measured every day, and the body fat weight and the fat-free weight were measured by using a quantitative NMR apparatus (EcoMRI, Hitachi Aloka Medical, Ltd.) on Day 21.
The percent body weight change (Day 23, Table 6), the body fat weight (Day 21, Table 7), and the fat-free weight (Day 21, Table 8) were each expressed in terms of the difference between the average value of the compound administration group and the average value of the medium administration group, and the difference between the groups was subjected to Dunnett's multiple comparison test (significance level p=0.05). Note that, in Tables 6 to 8, “n.s.” means a non-significant difference.

[4] = 30 mg/kg, Dunnett's test versus medium group
[5] = Table 5, Examples 25 to 60, same method, read-out: IC50
[6] = Table 5, relative to Comparative Example 1 measured in the same run

- IC50 ([1]; First Test (Table 3), read-out: IC50): 223 nM
- IC50 ([1]; Second Test (Table 4), read-out: IC50): 303 nM
- IC50 ([1]; Table 5, Comparative Example 1 measured alongside the Example, read-out: IC50 (nM) of Comp. Ex. 1): 210 nM and 170 nM and 150 nM and 140 nM and 295 nM and 137 nM and 180 nM and 250 nM and 300 nM and 270 nM and 240 nM and 260 nM and 160 nM and 244 nM and 200 nM
Structure (SMILES): COc1ccc(CNc2nc3c(c(=O)n2-c2ccccc2)CN(C(=O)Nc2ccc(C(F)(F)F)cc2)CC3)cc1 [Comparative Example 1, reference compound]
- Lipid absorption inhibition ratio (%) ([2]; Test 1, 30 mg/kg oral): 34%
- Lipid absorption inhibition ratio (%) ([2]; Test 1, 100 mg/kg oral): 44%
- Lipid absorption inhibition ratio (%) ([2]; Test 2, 100 mg/kg oral): 41%

Structure (SMILES): O=C(CNCCCCCOc1ccc(C(F)(F)F)cc1)N1CCc2nc(SC3CCC3)n(-c3ccccc3)c(=O)c2C1 [Example 5, 2-cyclobutylsulfanyl-3-phenyl-6-[2-[5-[4-(trifluoromethyl)phenoxy]pentylamino]acetyl]-7,8-dihydro-5H-pyrido[4,3-d]pyrimidin-4-one trifluoroacetate]
- vs Comp. Ex. 1 ([1]; First Test (Table 3), relative to Comparative Example 1, greater value = higher inhibitory action): 349
- IC50 ([1]; IC50 (nM), First Test (Table 3)): 0.64 nM
- Body Fat Weight, average value (difference from medium administration group) ([3]; 10 mg/kg oral once per day): -2.22 g
- Fat-Free Weight, average value (difference from medium administration group) ([3]; 10 mg/kg oral once per day): -0.34 g
- Percent Body Weight Change, average value (difference from medium administration group) ([3]; 10 mg/kg): −4.15%
- Body Fat Weight, average value (difference from medium administration group) ([3]; 30 mg/kg oral once per day): -4.26 g
- Fat-Free Weight, average value (difference from medium administration group) ([3]; 30 mg/kg oral once per day): -0.98 g
- Percent Body Weight Change, average value (difference from medium administration group) ([3]; 30 mg/kg): −9.56%
- body fat weight (in words) [3, 4]: significantly lowered
- percent body weight change (in words) [3, 4]: significantly lowered
- decrease of the fat-free body weight (in words) ([3]; 10 and 30 mg/kg, Dunnett's test versus medium group): did not have a statistically significant difference
- lipid absorption inhibitory action (in words) [2]: not inferior to that of the compound of Comparative Example 1
- Lipid absorption inhibition ratio (%) ([2]; Test 2, 30 mg/kg oral): 45%
- Lipid absorption inhibition ratio (%) ([2]; Test 3, 30 mg/kg oral): 42%

- IC50 [1, 5]: 3.3 nM
- Potency relative to Comparative Example 1 (higher = more potent) [1, 6]: 63
Structure (SMILES): O=C(CNCCCCCOC1CCC(F)(F)CC1)N1CCc2nc(SC3CCC3)n(-c3ccccc3)c(=O)c2C1 [Example 58, 2-cyclobutylsulfanyl-6-[2-[5-(4,4-difluorocyclohexoxy)pentylamino]acetyl]-3-phenyl-7,8-dihydro-5H-pyrido[4,3-d]pyrimidin-4-one trifluoroacetate]

- IC50 [1, 5]: 2.2 nM
- Potency relative to Comparative Example 1 (higher = more potent) [1, 6]: 117
Structure (SMILES): O=C(CCNCC#CCOc1ccc(C(F)(F)F)cc1)N1CCc2nc(SC3CCC3)n(-c3ccccc3)c(=O)c2C1 [Example 59, 2-cyclobutylsulfanyl-3-phenyl-6-[3-[4-[4-(trifluoromethyl)phenoxy]but-2-ynylamino]propanoyl]-7,8-dihydro-5H-pyrido[4,3-d]pyrimidin-4-one trifluoroacetate]

Structure (SMILES): O=C(CCNCC1COc2ccccc2O1)N1CCc2nc(SC3CCC3)n(-c3ccccc3)c(=O)c2C1 (stereo not shown) [Example 60, 2-cyclobutylsulfanyl-6-[3-(2,3-dihydro-1,4-benzodioxin-3-ylmethylamino)propanoyl]-3-phenyl-7,8-dihydro-5H-pyrido[4,3-d]pyrimidin-4-one trifluoroacetate]
- IC50 ([1]; IC50 (nM), Table 5, Examples 25 to 60, same method): 1.1 nM
- vs Comp. Ex. 1 [1, 6]: 140
- lipid absorption inhibitory action (in words) [2]: comparable to that of the compound of Example 5
- Lipid absorption inhibition ratio (%) ([2]; Test 3, 30 mg/kg oral): 42%
